PubChem BioAssay AID1963853 (Molecular Pharmacology Branch, DTP, NCI, 2024)
Where “and” joins values, the source holds several entries; their conditions need not be identical. Equal entries are not always repeated.

Test system: 266295-075-R-J1-PDC spheroid viability
Experiment: Anticancer human tumor 266295-075-R-J1-PDC patient-derived head and neck squamous carcinoma cell line growth inhibition [POLQ]
Details: spheroids with HUVEC and MSC; for viability, T/C: stronger effect = lower value
Method: Multicellular complex tumor spheroid response to Polymerase (POL) inhibitors (novobiocin, ART-558, RP6685) in combination with a variety of drugs and investigational agents in selected tumor cell lines
The POL inhibitors (novobiocin, ART-558, and RP6685) were evaluated both individually and in combination with standard of care and investigational anticancer small molecules within a complex spheroid model of solid tumors. . Complex spheroids include a stromal component modeled by human endothelial cells (HUVEC) and fibroblasts modeled by human mesenchymal stem cells (MSCs). The concentration ranges selected for each drug and investigational agent were based upon clinically achievable concentrations if the clinical Cmax of the agent was known.
Compounds. The drugs and investigational agents: novobiocin (NSC847541), ART-558 (NSC835418), RP-6685 (NSC848927), peposertib (NSC802822), ceralasertib (NSC780249), elimusertib (NSC800525), camonsertib (NSC841442), AZD-1390 (NSC803789), olaparib (NSC753686), talazoparib (NSC767125), rucaparib (NSC756644), sotorasib (NSC818433), MRTX-1133 (NSC836407), SN-38 (NSC673596), topotecan (NSC609699), epotoside (NSC141540), doxorubicin (NSC123127), gemcitabine (NSC613327), 5-fluorouracil (NSC19893), paclitaxel (NSC125973), vemurafenib (NSC761431), MSA-2 (NSC828583), SN-011 (NSC837082), adavosertib (NSC754352), prexasertib (NSC758257), carboplatin (NSC241240) and oxaliplatin (NSC266046), were obtained from the National Cancer Institute (NCI) Developmental Therapeutics Program Chemical Repository (21). The FDA-approved anticancer drug set is available from the Developmental Therapeutics Program at https://dtp.cancer.gov/organization/dscb/obtaining/. […] The stock solutions were prepared in dimethyl sulfoxide (DMSO, Sigma-Aldrich, St. Louis, MO, cat. D2650), except for the platinum compounds which were prepared in saline (Quality Biological, Gaithersburg, MD, cat. 114-055-101), at 800-fold the tested concentration and stored at -70 degrees C prior to their use. All drugs and investigational agents were tested over a range starting from a high concentration at or near the clinical Cmax and decreasing in half-log increments. If the clinical Cmax for an agent had not been determined, the highest concentration tested was 10 microM, except for SN-38, which was tested at a high concentration of 1 microM.
Cell Culture. All cells were maintained in an incubator at 37 degrees C and 5% CO2 with 95% humidity. The PDC lines were cultured according to standard operating procedures established by the NCI PDMR (https://pdmr.cancer.gov). Table 3 of the manuscript, lists the cell lines along with the number of the three cell types plated to form the mct-spheroids and media for tumor cell growth. After thawing, all PDC lines, except 997537-175-T-J1-PDC and 415267-285-R-J2-PDC, were cultured in Matrigel-coated flasks prepared with a working solution of 1X Ham's F-12 nutrient mix, without supplementation (Thermo Fisher Scientific, cat. 11765054), 100 U/mL penicillin-streptomycin (Thermo Fisher Scientific, cat. 15140122), and 2.5% Matrigel (Corning Inc., Corning, NY, cat. 354248) for the first three passages. The two PDC lines 997537-175-T-J1-PDC and 415267-285-R-J2-PDC were cultured on uncoated flasks. The 857933-349-R-J2-PDC line was cultured in 6C/Colon 1B media containing advanced DMEM/F-12 (Thermo Fisher Scientific, cat. 12634028), 10 mM HEPES (Thermo Fisher Scientific, cat. 15630080), 1X GlutaMAX supplement (Thermo Fisher Scientific, cat. 35050061), 0.1 mg/mL primocin (InvivoGen, San Diego, CA, cat. ant-pm-2), 10% defined fetal bovine serum, heat inactivated (HyClone Laboratories Inc., Logan, UT, cat. SH30070.03HI), 50% L-WRN conditioned media (ATCC, cat. CRL-3276), 1.25 mM N-Acetyl-L-cysteine (Sigma-Aldrich, cat. A9165), 10 mM nicotinamide (Sigma-Aldrich, cat. N0636), 1X B-27 supplement (Thermo Fisher Scientific, cat. 17504044), 1X N-2 supplement (Thermo Fisher Scientific, cat. […]
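Also: spheroids exposed to compounds for seven days before readout.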

For `CC(=O)O[C@H]1C(=O)[C@@]2(C)[C@H]([C@H](OC(=O)c3ccccc3)[C@]3(O)C[C@H](OC(=O)[C@H](O)[C@@H](NC(=O)c4ccccc4)c4ccccc4)C(C)=C1C3(C)C)[C@]1(OC(C)=O)CO[C@@H]1C[C@@H]2O`, the viability, T/C (compound 0.00949 µM) was 76.7% and 71.7% and 79%, the viability, T/C (compound 0.03 µM) was 72.1% and 64.8% and 76% and the viability, T/C (compound 0.0949 µM) was 54.3% and 61.7% and 67.4%. The viability, T/C (compound 0.3 µM) was 80.9% and 69.8% and 75%, the viability, T/C (compound 0.949 µM) was 73% and 75.7% and 70.2% and the viability, T/C (compound 3 µM) was 61.1% and 82% and 77.6%. The IC50 (curve of compound) was greater than 3 µM.

With `COc1cc(C2c3cc4c(cc3C(OC3OC5COC(C)OC5C(O)C3O)C3COC(=O)C23)OCO4)cc(OC)c1O` (stereo not given) the viability, T/C (compound 0.0316 µM) was 84.2% and 123% and 88.1%, the viability, T/C (compound 0.1 µM) was 80.5% and 94.5% and 116% and the viability, T/C (compound 0.316 µM) was 92.3% and 110% and 112%. For the same compound, the viability, T/C (compound 1 µM) was 77.7% and 88% and 98.4%, the viability, T/C (compound 3.16 µM) was 79.7% and 84.9% and 93.1% and the viability, T/C (compound 10 µM) was 72.6% and 84.4% and 82.6%. The IC50 (curve of compound) was greater than 10 µM.

`CC(C)n1c(=O)n(C)c2cnc3cc(F)c(-c4ccc(OCCCN5CCCCC5)nc4)cc3c21` was tested, and the viability, T/C (compound 0.0316 µM) was 127% and 94.5% and 93.5%, the viability, T/C (compound 0.1 µM) was 74.1% and 94.9% and 97.8% and the viability, T/C (compound 0.316 µM) was 107% and 111% and 96.5%. For the same compound, the viability, T/C (compound 1 µM) was 100% and 92.8% and 103%, the viability, T/C (compound 3.16 µM) was 89.6% and 91.6% and 94.1% and the viability, T/C (compound 10 µM) was 70.6% and 64.5% and 76.9%. For the same compound, the IC50 (curve of compound) was greater than 10 µM.

`COc1cc2cc(C(=O)CCC(=O)O)sc2cc1OC` was tested, and the viability, T/C (compound 0.0316 µM) was 96.8% and 81.4% and 99%, the viability, T/C (compound 0.1 µM) was 105% and 89.9% and 92.6% and the viability, T/C (compound 0.316 µM) was 108% and 91.4% and 97.7%. For the same compound, the viability, T/C (compound 1 µM) was 101% (2×) and 99.7%, the viability, T/C (compound 3.16 µM) was 87.9% and 109% and 115% and the viability, T/C (compound 10 µM) was 93.1% and 105% and 85.8%. The IC50 (curve of compound) was greater than 10 µM.

`C=CC(=O)N1CCN(c2nc(=O)n(-c3c(C)ccnc3C(C)C)c3nc(-c4c(O)cccc4F)c(F)cc23)C(C)C1` (stereo not given) + Nc1ccc(C#CCN(C(=O)Cc2ncc(C(F)(F)F)cc2C(F)(F)F)c2ccc(F)cc2)nn1 gave an IC50 (curve of first compound, second compound 0.0316 µM) greater than 10 µM, an IC50 (curve of first compound, second compound 0.1 µM) greater than 10 µM and an IC50 (curve of first compound, second compound 0.316 µM) greater than 10 µM. The IC50 (curve of first compound, second compound 1 µM) was greater than 10 µM, the IC50 (curve of first compound, second compound 3.16 µM) was greater than 10 µM and the IC50 (curve of first compound, second compound 10 µM) was greater than 10 µM. The viability, T/C (second compound 0.0316 µM, first compound 0.0316 µM) was 108%, the viability, T/C (second compound 0.0316 µM, first compound 0.1 µM) was 96.4% and the viability, T/C (second compound 0.0316 µM, first compound 0.316 µM) was 101%. The viability, T/C (second compound 0.0316 µM, first compound 1 µM) was 96.8%, the viability, T/C (second compound 0.0316 µM, first compound 3.16 µM) was 112% and the viability, T/C (second compound 0.0316 µM, first compound 10 µM) was 107%. The viability, T/C (second compound 0.1 µM, first compound 0.0316 µM) was 96%, the viability, T/C (second compound 0.1 µM, first compound 0.1 µM) was 106% and the viability, T/C (second compound 0.1 µM, first compound 0.316 µM) was 100%. For the same compound, the viability, T/C (second compound 0.1 µM, first compound 1 µM) was 111%, the viability, T/C (second compound 0.1 µM, first compound 3.16 µM) was 108% and the viability, T/C (second compound 0.1 µM, first compound 10 µM) was 112%. It also gave a viability, T/C (second compound 0.316 µM, first compound 0.0316 µM) of 89.8%, a viability, T/C (second compound 0.316 µM, first compound 0.1 µM) of 107% and a viability, T/C (second compound 0.316 µM, first compound 0.316 µM) of 90.6%. It also gave a viability, T/C (second compound 0.316 µM, first compound 1 µM) of 107%, a viability, T/C (second compound 0.316 µM, first compound 3.16 µM) of 145% and a viability, T/C (second compound 0.316 µM, first compound 10 µM) of 125%. The viability, T/C (second compound 1 µM, first compound 0.0316 µM) was 101%, the viability, T/C (second compound 1 µM, first compound 0.1 µM) was 95.5% and the viability, T/C (second compound 1 µM, first compound 0.316 µM) was 133%. For the same compound, the viability, T/C (second compound 1 µM, first compound 1 µM) was 101%, the viability, T/C (second compound 1 µM, first compound 3.16 µM) was 124% and the viability, T/C (second compound 1 µM, first compound 10 µM) was 73.9%. For the same compound, the viability, T/C (second compound 3.16 µM, first compound 0.0316 µM) was 98.4%, the viability, T/C (second compound 3.16 µM, first compound 0.1 µM) was 93.8% and the viability, T/C (second compound 3.16 µM, first compound 0.316 µM) was 94.2%. The viability, T/C (second compound 3.16 µM, first compound 1 µM) was 108%, the viability, T/C (second compound 3.16 µM, first compound 3.16 µM) was 117% and the viability, T/C (second compound 3.16 µM, first compound 10 µM) was 103%. It also gave a viability, T/C (second compound 10 µM, first compound 0.0316 µM) of 106%, a viability, T/C (second compound 10 µM, first compound 0.1 µM) of 72.8% and a viability, T/C (second compound 10 µM, first compound 0.316 µM) of 92.3%. It also gave a viability, T/C (second compound 10 µM, first compound 1 µM) of 106%, a viability, T/C (second compound 10 µM, first compound 3.16 µM) of 105% and a viability, T/C (second compound 10 µM, first compound 10 µM) of 108%.
